Four compounds from patent publication US9074014B2 (Ipsen Pharma S.A.S., priority 2008, dated 2015) can be followed below.

Where a SMILES comes first, the peptide text is derived from it. Where no end group is shown, it is not given here. [ ]: non-standard residue; d: D form. Ac6c = NC1(C(=O)O)CCCCC1; Nle = CCCC[C@H](N)C(=O)O; Ac5c = NC1(C(=O)O)CCCC1; Aib = CC(C)(N)C(=O)O

The target in data set [1] is T1, human recombinant GIP receptor (Homo sapiens, UniProt P48546).
T1 construct: expressed in transfected cells; host or cells: CHO-K1 clonal cells (membranes)
T1 sequence (P48546 22-466): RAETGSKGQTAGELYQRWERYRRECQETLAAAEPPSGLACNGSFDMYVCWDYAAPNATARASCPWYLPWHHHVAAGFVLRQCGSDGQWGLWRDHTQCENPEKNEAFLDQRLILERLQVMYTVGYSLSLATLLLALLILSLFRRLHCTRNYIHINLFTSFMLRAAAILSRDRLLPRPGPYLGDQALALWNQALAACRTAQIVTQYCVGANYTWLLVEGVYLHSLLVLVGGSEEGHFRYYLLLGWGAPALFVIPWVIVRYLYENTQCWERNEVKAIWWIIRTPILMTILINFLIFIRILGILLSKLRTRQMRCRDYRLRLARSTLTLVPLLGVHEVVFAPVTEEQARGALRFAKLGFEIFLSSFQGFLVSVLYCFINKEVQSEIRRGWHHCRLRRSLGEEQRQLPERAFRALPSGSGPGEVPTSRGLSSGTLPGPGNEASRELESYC
The experiment in a line: In vitro hGIP receptor binding assay ([125I]GIP displacement, CHO-K1 membranes). An excerpt:
A. In Vitro hGIP Receptor Binding Assay

The nature of data set [2]: Rat plasma half-life assay. Format: in vitro ADME. To be noted: rat plasma, 37° C., LC-MS; read-out: Rat Plasma T½ (converted).
Data set [3] in a line: Human plasma half-life assay. To be noted: human plasma, 37° C., LC-MS; read-out: Human Plasma T½ (converted). Format: in vitro ADME.

By Ki is commonly meant a dissociation constant, usually derived from enzyme kinetics or from competition with a known ligand. Turning to “Y[Aib]EGTF[Ac6c]SDYSI[Aib][Nle]DKIHQQDFVNWLLAQKGKKNDWKHNITQ-OH [Example 21, (Aib^2, 13, A6c^7, Nle^14)hGIP(1-42)-OH]”, in data set [1], the Ki was 0.3 nM. The half-life at 0.1 mg/ml in data set [2] is 12.3 h; in data set [3], greater than 48 h.

On to `CCCC[C@H](NC(=O)C(C)(C)NC(=O)[C@@H](NC(=O)[C@H](CO)NC(=O)[C@H](Cc1ccc(O)cc1)NC(=O)[C@H](CC(=O)O)NC(=O)[C@H](CO)NC(=O)[C@@H](NC(=O)[C@H](Cc1ccccc1)NC(=O)[C@@H](NC(=O)CNC(=O)[C@@H]1CCCN1C(=O)C(C)(C)NC(=O)[C@@H](N)Cc1ccc(O)cc1)[C@@H](C)O)[C@@H](C)CC)[C@@H](C)CC)C(=O)N[C@@H](CC(=O)O)C(=O)N[C@@H](CCCCN)C(=O)N[C@H](C(=O)N[C@@H](Cc1c[nH]cn1)C(=O)N[C@@H](CCC(N)=O)C(=O)N[C@@H](CCC(N)=O)C(=O)N[C@@H](CC(=O)O)C(=O)N[C@@H](Cc1ccccc1)C(=O)N[C@H](C(=O)N[C@@H](CC(N)=O)C(=O)N[C@@H](Cc1c[nH]c2ccccc12)C(=O)N[C@@H](CC(C)C)C(=O)N[C@@H](CC(C)C)C(=O)N[C@@H](C)C(=O)N[C@@H](CCC(N)=O)C(=O)N[C@@H](CCCCN)C(N)=O)C(C)C)[C@@H](C)CC` [Example 108, (Aib^2, 13, Pro^3, Nle^14)hGIP(1-30)-NH2] (H-Y[Aib]PGTFISDYSI[Aib][Nle]DKIHQQDFVNWLLAQK-NH2; N-terminus assumed), for which the Ki in data set [1] stood at 0.07 nM. Further, the half-life at 0.1 mg/ml in data set [2] is 45.6 h; in data set [3], 46.2 h.

With `CC[C@H](C)[C@H](NC(=O)[C@H](CCCCN)NC(=O)[C@H](CC(=O)O)NC(=O)[C@H](CCSC)NC(=O)[C@H](C)NC(=O)[C@@H](NC(=O)C1(NC(=O)[C@H](Cc2ccc(O)cc2)NC(=O)[C@H](CC(=O)O)NC(=O)[C@H](CO)NC(=O)[C@@H](NC(=O)[C@H](Cc2ccccc2)NC(=O)[C@@H](NC(=O)CNC(=O)[C@H](CCC(=O)O)NC(=O)[C@@H](C)NC(=O)[C@@H](N)Cc2ccc(O)cc2)[C@@H](C)O)[C@@H](C)CC)CCCC1)[C@@H](C)CC)C(=O)N[C@@H](Cc1c[nH]cn1)C(=O)N[C@@H](CCC(N)=O)C(=O)N[C@@H](CCC(N)=O)C(=O)N[C@@H](CC(=O)O)C(=O)N[C@@H](Cc1ccccc1)C(=O)N[C@H](C(=O)N[C@@H](CC(N)=O)C(=O)N[C@@H](Cc1c[nH]c2ccccc12)C(=O)N[C@@H](CC(C)C)C(=O)N[C@@H](CC(C)C)C(=O)N[C@@H](C)C(=O)N[C@@H](CCC(N)=O)C(=O)N[C@@H](CCCCN)C(=O)N[C@@H](Cc1c[nH]cn1)C(N)=O)C(C)C` [Example 122, (D-Ala^2, A5c^11, His^31)hGIP(1-31)-NH2] (H-Y[dA]EGTFISDY[Ac5c]IAMDKIHQQDFVNWLLAQKH-NH2; N-terminus assumed), the Ki in data set [1] was 0.87 nM.

Turning to `CC[C@H](C)[C@H](NC(=O)[C@H](CCCCN)NC(=O)[C@H](CC(=O)O)NC(=O)[C@H](CCSC)NC(=O)[C@H](C)NC(=O)[C@@H](NC(=O)C1(NC(=O)[C@H](Cc2ccc(O)cc2)NC(=O)[C@H](CC(=O)O)NC(=O)[C@H](CO)NC(=O)[C@@H](NC(=O)[C@H](Cc2ccccc2)NC(=O)[C@@H](NC(=O)CNC(=O)[C@@H]2CCCN2C(=O)[C@H](C)NC(=O)[C@@H](N)Cc2ccc(O)cc2)[C@@H](C)O)[C@@H](C)CC)CCCC1)[C@@H](C)CC)C(=O)N[C@@H](Cc1c[nH]cn1)C(=O)N[C@@H](CCC(N)=O)C(=O)N[C@@H](CCC(N)=O)C(=O)N[C@@H](CC(=O)O)C(=O)N[C@@H](Cc1ccccc1)C(=O)N[C@H](C(=O)N[C@@H](CC(N)=O)C(=O)N[C@@H](Cc1c[nH]c2ccccc12)C(=O)N[C@@H](CC(C)C)C(=O)N[C@@H](CC(C)C)C(=O)N[C@@H](C)C(=O)N[C@@H](CCC(N)=O)C(=O)N[C@@H](CCCCN)C(N)=O)C(C)C` [Example 98, (Pro^3, A5c^11)hGIP(1-30)-NH2] (H-YAPGTFISDY[Ac5c]IAMDKIHQQDFVNWLLAQK-NH2; N-terminus assumed), in data set [1], the inhibition constant Ki is 65.9 nM.
